Experiments:
[1] = system: Immortalized vaginal epithelial cells (VK2/E6E7); assay: Vaginal epithelium toxicity (MTT viability); format: cell-based; conditions: concentrations of melittin as low as 1 μM, 12 hours at 37° C., FIG. 1A
Method: For toxicity studies, 7500 cells were added to each well of a 96-well plate and allowed to attach for 24 hours. Melittin or melittin coated PFC-NP were then added and incubated with the cells for 12 hours at 37° C. with shaking at 500 rpm. Cells were washed once with media and incubated with MTT reagent for 4 hours. The colored product was solubilized in DMSO and absorbance at 570 nm was measured using a plate reader.
In more detail, cells were detached from a T75 flask by rinsing with 2-3 mL of trypsin, followed by adding 5 mL trypsin and incubating at 37° C. for 15 minutes. Five mL DMEM-FBS is then added to stop the trypsin, and the mixture is centrifuged at 900 rpm for 5 minutes, supernatant is removed and the cells are resuspended in 5 mL of Keratinocyte-Serum Free Media (Invitrogen™). The cells are diluted to approximately 75,000 cells/mL, and 100 μL of the cell suspension is added to each well of a 96-well plate and incubated for 24 hours at 37° C. The media are replaced with 100 μL of media containing the melittin or melittin-loaded nanoparticles at various concentrations and incubated for 12 hours at 37° C. with shaking at 500 rpm. […]
To each well containing 100 μL of media, 20 μL of MTT reagent (5 mg/mL MTT in PBS) were added, and incubated for 4 hours at 37° C. […] Absorbance is read at 570 nm using a plate reader.

sperm = assay: Sperm motility and viability (computer assisted sperm analysis); format: cell-based, Human; conditions: 30 minutes at 37° C., 10 million sperm per mL; FIGS. 5A-5D
Method: Human semen samples were obtained from the Washington University in vitro fertilization laboratory and stored at 37° C. until use. Semen was diluted in EmbryoMax® Human Tubal Fluid (HTF) (Millipore) and free melittin or melittin-coupled nanoparticles in HTF was added to achieve a final sperm concentration of 10 million sperm per mL. (For nanoparticles, samples were pipetted up and down 3 times every 10 minutes to keep the nanoparticles suspended.) Samples were incubated in 96-well plates for 30 minutes at 37° C. with shaking at 150 rpm to prevent sperm from settling. Afterwards, Viadent® stain (Hoechst 33258, Hamilton Thorne) was added to achieve a final stain concentration of 10 μg/mL and samples were incubated for an additional 5 minutes. Sperm motility and viability were determined using an IVOS® Computer Assisted Sperm Analyzer (Hamilton Thorne).

CC[C@H](C)[C@H](NC(=O)CN)C(=O)NCC(=O)N[C@@H](C)C(=O)N[C@H](C(=O)N[C@@H](CC(C)C)C(=O)N[C@@H](CCCCN)C(=O)N[C@H](C(=O)N[C@@H](CC(C)C)C(=O)N[C@H](C(=O)N[C@H](C(=O)NCC(=O)N[C@@H](CC(C)C)C(=O)N1CCC[C@H]1C(=O)N[C@@H](C)C(=O)N[C@@H](CC(C)C)C(=O)N[C@H](C(=O)N[C@@H](CO)C(=O)N[C@@H](Cc1c[nH]c2ccccc12)C(=O)N[C@H](C(=O)N[C@@H](CCCCN)C(=O)N[C@@H](CCCNC(=N)N)C(=O)N[C@@H](CCCCN)C(=O)N[C@@H](CCCNC(=N)N)C(=O)N[C@@H](CCC(N)=O)C(=O)N[C@@H](CCC(N)=O)C(N)=O)[C@@H](C)CC)[C@@H](C)CC)[C@@H](C)O)[C@@H](C)O)C(C)C)C(C)C [melittin]
viability of vaginal epithelium cells [1]: dramatically decrease
sperm motility (sperm): impeded
sperm viability (sperm): impeded
